Measurements published in PubChem BioAssay (NCI).
Where “and” joins values, the source holds several entries; their conditions need not be identical. Equal entries are not always repeated.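 Five concentrations, 48 hours, 96-well plates. The concentration for 50% growth inhibition is given as GI50. TGI is the concentration that stops growth completely.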

Tests used:
Assay in all cases: NCI-60 cell line screen, 48 h
SW-620 colon = test system: SW-620 colon
A549 NSCLC = test system: A549 NSCLC
U251 CNS = test system: U251 CNS
SF-268 CNS = test system: SF-268 CNS
HS 578T breast = test system: HS 578T breast
UO-31 renal = test system: UO-31 renal
OVCAR-5 ovarian = test system: OVCAR-5 ovarian
COLO 205 colon = test system: COLO 205 colon
MALME-3M melanoma = test system: MALME-3M melanoma
NCI/ADR-RES ovarian = test system: NCI/ADR-RES ovarian

SMILES | GI50 (SW-620 colon) | TGI (SW-620 colon) | GI50 (A549 NSCLC) | TGI (A549 NSCLC) | GI50 (U251 CNS) | TGI (U251 CNS) | GI50 (SF-268 CNS) | TGI (SF-268 CNS) | GI50 (HS 578T breast) | TGI (HS 578T breast) | GI50 (UO-31 renal) | TGI (UO-31 renal) | GI50 (OVCAR-5 ovarian) | TGI (OVCAR-5 ovarian) | GI50 (COLO 205 colon) | TGI (COLO 205 colon) | GI50 (MALME-3M melanoma) | TGI (MALME-3M melanoma) | GI50 (NCI/ADR-RES ovarian) | TGI (NCI/ADR-RES ovarian)
O=C(Nc1ccncc1)C(=O)c1cn(S(=O)(=O)c2ccccc2F)c2ccccc12 | 1.44 µM | > 100 µM | 13.5 µM | 59.8 µM | 1.89 µM | 34.3 µM | 2.32 µM | > 79.3 µM | 5.27 µM | > 100 µM | 3.66 µM | > 95 µM | 5.38 µM | 98.2 µM | 23.6 µM | > 100 µM | 1.65 µM | > 100 µM | 0.579 µM | > 100 µM
CCN(CC)CCCC(C)Nc1cnc(C(=O)Nc2cc(F)cc3cccnc23)cn1 (centres undefined) | 4.03 µM and 0.814 µM | 15 µM and 2.62 µM | 8.14 µM and 2.41 µM | 22.3 µM and 6.28 µM | 5.72 µM and 1.56 µM | 18.4 µM and 3.01 µM | 5.32 µM and 1.56 µM | 20.9 µM and 3.25 µM | 3.97 µM and 2.15 µM | 21.1 µM and 6.62 µM | 4.12 µM and 0.933 µM | 17.1 µM and 2.23 µM | 11 µM and 1.41 µM | 23.1 µM and 2.91 µM | 1.16 µM and 0.461 µM | 3.57 µM and 2.16 µM | 1.77 µM and 0.983 µM | 3.38 µM and 2.28 µM | 7.27 µM and 2.6 µM | 21.6 µM and 11.2 µM
CCS(=O)(=O)c1ccc(OC)c(Nc2nccc(N(C)c3ccc4c(C)[nH]nc4c3)n2)c1 | 7.85 µM | > 25 µM | 9.83 µM | > 25 µM | 7.28 µM | > 25 µM | 4.74 µM | > 17.6 µM | 2.69 µM | 14.4 µM | 2.05 µM | 10.9 µM | 5.75 µM | > 22.7 µM | 11 µM | > 25 µM | 8.48 µM | > 25 µM | 6.32 µM | > 19.4 µM
CCOC(=O)C(Cc1c[nH]c2cc([N+](=O)[O-])ccc12)(NC(C)=O)C(=O)OCC | > 1000 µM | > 1000 µM | – | > 1000 µM | 104 µM | > 693 µM | 95.1 µM | > 1000 µM | 61.3 µM | > 798 µM | 43.4 µM and 188 µM | > 1000 µM | > 833 µM | > 1000 µM | > 1000 µM | > 1000 µM | 171 µM | > 1000 µM | 92.2 µM and 331 µM | > 1000 µM
O=C1C(Cl)=C(N2CCOCC2)C(=O)c2ccccc21 | 1.76 µM | 3.51 µM | 17.8 µM | 32.3 µM | 5.07 µM | 17.8 µM | 4.88 µM | 16.8 µM | 20.8 µM | 69.6 µM | 1.64 µM | 3.28 µM | 20.7 µM | 36.4 µM | 14.2 µM | 27.8 µM | 2.55 µM | 4.85 µM | 3.11 µM | 13 µM
